Literature values in patent US20140283166A1, “CREATION AND TRANSMISSION OF MEGALOCI” (Monsanto Technology, LLC, priority 2013, published 2014).
Read-outs that look alike come from different tables or passages of the source.

System: Arabidopsis

COc1cccc(C(N)=O)c1 [3-methoxybenzamide]
effect on genetic distance around centromeres (2 mM): increase the genetic distance around centromeres

Nc1ncn([C@H]2C[C@H](O)[C@@H](CO)O2)c(=O)n1 [5-aza-2′-deoxycytidine]
effect on genetic distance around centromeres (25 or 100 mg/L): increase the genetic distance around centromeres

CCN(N=O)C(N)=O [N-nitroso-N-ethylurea]
effect on genetic distance around centromeres (100 μM): increase the genetic distance around centromeres

Cc1c(N)nc([C@H](CC(N)=O)NC[C@H](N)C(N)=O)nc1C(=O)N[C@H](C(=O)N[C@H](C)[C@@H](O)[C@H](C)C(=O)N[C@H](C(=O)NCCC1=N[C@@H](c2nc(C(=O)NCCCCN=C(N)N)cs2)CS1)[C@@H](C)O)[C@@H](O[C@@H]1O[C@@H](CO)[C@@H](O)[C@H](O)[C@@H]1O[C@H]1O[C@H](CO)[C@@H](O)[C@H](OC(N)=O)[C@@H]1O)c1cnc[nH]1 [Zeocin]
effect on genetic distance around centromeres (1 μg/ml): increase the genetic distance around centromeres

N.N.[Cl][Pt][Cl] [cis-diamminedichloroplatinum]
effect on genetic distance around centromeres (20 μg/ml): increase the genetic distance around centromeres

CCOS(C)(=O)=O [methanesulfonic acid ethyl ester]
effect on genetic distance around centromeres (0.05%): increase the genetic distance around centromeres

COS(C)(=O)=O [methanesulfonic acid methyl ester]
effect on genetic distance around centromeres (75 parts per million): increase the genetic distance around centromeres

CO[C@@]12[C@H](COC(N)=O)C3=C(C(=O)C(C)=C(N)C3=O)N1C[C@@H]1N[C@@H]12 [mitomycin C]
effect on genetic distance around centromeres (10 mg/L): increase the genetic distance around centromeres

CCCC(=O)O [n-butyric acid]
effect on genetic distance around centromeres (20 μM): increase the genetic distance around centromeres

CC(/C=C/C(=O)NO)=C\[C@@H](C)C(=O)c1ccc(N(C)C)cc1 [trichostatin A]
effect on genetic distance around centromeres (10 μM): increase the genetic distance around centromeres
